In US20140120060A1, “TREATMENT OF RHEUMATOID ARTHRITIS AND ASTHMA USING PI3 KINASE INHIBITORS” (INFINITY PHARMACEUTICALS, INC., priority 2012, published 2014):

system: B cell; experiment: B cell proliferation; assay type: cell-based

Cc1cccc2cc(Cn3cnc4c(N)ncnc43)n(-c3ccccc3F)c(=O)c12 [Compound 1] and Cc1ccccc1-n1c(Cn2cnc3c(N)ncnc32)cc2cccc(C)c2c1=O [Compound 5] cannot be ordered by EC50: < 10000 nM for the first, < 10000 nM for the second.

Cc1cccc2cc(Cn3nc(I)c4c(N)ncnc43)n(-c3ccccc3F)c(=O)c12 [Compound 2] and Cc1ccccc1-n1c(Cn2nc(I)c3c(N)ncnc32)cc2cccc(F)c2c1=O [Compound 42] cannot be ordered by EC50: < 10000 nM for the first, < 1000 nM for the second.

Cc1cccc2cc(Cn3nc(-c4cc(O)cc(F)c4)c4c(N)ncnc43)n(-c3ccccc3F)c(=O)c12 [Compound 3] and Cc1ccccc1-n1c(Cn2nc(-c3cc(O)cc(F)c3)c3c(N)ncnc32)cc2cccc(F)c2c1=O [Compound 55] cannot be ordered by EC50: < 100 nM for the first, < 100 nM for the second.

Cc1cccc2cc(Cn3nc(C#CC4CC4)c4c(N)ncnc43)n(-c3ccccc3F)c(=O)c12 [Compound 4] and Cc1ccccc1-n1c(Cn2nc(C#CC3CC3)c3c(N)ncnc32)cc2cccc(C)c2c1=O [Compound 14] cannot be ordered by EC50: < 1000 nM for the first, < 1000 nM for the second.

Cc1cccc2cc(Cn3nc(C#CCO)c4c(N)ncnc43)n(-c3ccccc3F)c(=O)c12 [Compound 8] and Cc1ccccc1-n1c(Cn2nc(C#CCO)c3c(N)ncnc32)cc2cccc(C)c2c1=O [Compound 11] cannot be ordered by EC50: < 1000 nM for the first, < 1000 nM for the second.

Cc1cccc2cc(Cn3nc(-c4ccc(F)c(O)c4)c4c(N)ncnc43)n(-c3ccccc3F)c(=O)c12 [Compound 9] and Cc1cccc2cc(Cn3nc(-c4ccc(O)c(F)c4)c4c(N)ncnc43)n(-c3ccccc3F)c(=O)c12 [Compound 29] cannot be ordered by EC50: < 1000 nM for the first, < 1000 nM for the second.

Cc1cccc2cc(Cn3nc(-c4cccc(O)c4)c4c(N)ncnc43)n(-c3ccccc3F)c(=O)c12 [Compound 10] and Cc1ccccc1-n1c(Cn2nc(-c3cccc(O)c3)c3c(N)ncnc32)cc2cccc(C)c2c1=O [Compound 13] cannot be ordered by EC50: < 1000 nM for the first, < 100 nM for the second.

Cc1ccccc1-n1c(Cn2nc(-c3ccc(F)c(O)c3)c3c(N)ncnc32)cc2cccc(C)c2c1=O [Compound 12] and Cc1ccccc1-n1c(Cn2nc(-c3ccc(O)c(F)c3)c3c(N)ncnc32)cc2cccc(C)c2c1=O [Compound 30] cannot be ordered by EC50: < 100 nM for the first, < 1000 nM for the second.

Cc1cccnc1-n1c(Cn2nc(I)c3c(N)ncnc32)cc2cccc(C)c2c1=O [Compound 15] and Cc1cccnc1-n1c(Cn2nc(Br)c3c(N)ncnc32)cc2cccc(C)c2c1=O [Compound 17] cannot be ordered by EC50: < 1000 nM for the first, < 100 nM for the second.

Cc1cccnc1-n1c(Cn2nc(-c3cc(O)cc(F)c3)c3c(N)ncnc32)cc2cccc(C)c2c1=O [Compound 16] and Cc1cccnc1-n1c(Cn2nc(-c3ccc(F)c(O)c3)c3c(N)ncnc32)cc2cccc(C)c2c1=O [Compound 68] cannot be ordered by EC50: < 100 nM for the first, < 100 nM for the second.

Cc1cccnc1-n1c(Cn2nc(Cl)c3c(N)ncnc32)cc2cccc(C)c2c1=O [Compound 18] and Cc1ccccc1-n1c(Cn2nc(Cl)c3c(N)ncnc32)cc2cccc(C)c2c1=O [Compound 20] cannot be ordered by EC50: < 1000 nM for the first, < 1000 nM for the second.

Cc1ccccc1-n1c(Cn2nc(Br)c3c(N)ncnc32)cc2cccc(C)c2c1=O [Compound 19] and Cc1cccc2cc(Cn3nc(Br)c4c(N)ncnc43)n(-c3ccccc3F)c(=O)c12 [Compound 35] cannot be ordered by EC50: < 1000 nM for the first, < 1000 nM for the second.

COc1cc(-c2nn(Cc3cc4cccc(C)c4c(=O)n3-c3ccccc3C)c3ncnc(N)c23)ccc1Cl [Compound 21] and COc1cc(-c2nn(Cc3cc4cccc(C)c4c(=O)n3-c3ccccc3F)c3ncnc(N)c23)ccc1Cl [Compound 22] cannot be ordered by EC50: < 1000 nM for the first, < 10000 nM for the second.

Cc1ccccc1-n1c(Cn2nc(-c3ccc(Cl)c(O)c3)c3c(N)ncnc32)cc2cccc(C)c2c1=O [Compound 23] and Cc1ccccc1-n1c(Cn2nc(-c3ccc(O)c(Cl)c3)c3c(N)ncnc32)cc2cccc(C)c2c1=O [Compound 25] cannot be ordered by EC50: < 100 nM for the first, < 1000 nM for the second.

Cc1cccc2cc(Cn3nc(-c4ccc(Cl)c(O)c4)c4c(N)ncnc43)n(-c3ccccc3F)c(=O)c12 [Compound 24] and Cc1cccc2cc(Cn3nc(-c4ccc(O)c(Cl)c4)c4c(N)ncnc43)n(-c3ccccc3F)c(=O)c12 [Compound 26] cannot be ordered by EC50: < 1000 nM for the first, < 10000 nM for the second.

Cc1ccccc1-n1c(Cn2nc(-c3ccc(F)cc3)c3c(N)ncnc32)cc2cccc(C)c2c1=O [Compound 27] and Cc1ccccc1-n1c(Cn2nc(-c3ccc(O)cc3)c3c(N)ncnc32)cc2cccc(C)c2c1=O [Compound 36] cannot be ordered by EC50: < 10000 nM for the first, < 1000 nM for the second.

Cc1cccc2cc(Cn3nc(C#C[C@@H](C)O)c4c(N)ncnc43)n(-c3ccccc3F)c(=O)c12 [Compound 28] and Cc1ccccc1-n1c(Cn2nc(C#C[C@@H](C)O)c3c(N)ncnc32)cc2cccc(F)c2c1=O [Compound 43] cannot be ordered by EC50: < 1000 nM for the first, < 10000 nM for the second.

Cc1ccccc1-n1c(Cn2nc(I)c3c(N)ncnc32)cc2ccccc2c1=O [Compound 31] and Cc1ccccc1-n1c(Cn2nc(C#C[C@@H](C)O)c3c(N)ncnc32)cc2ccccc2c1=O [Compound 32] cannot be ordered by EC50: < 1000 nM for the first, < 1000 nM for the second.

Cc1ccccc1-n1c(Cn2nc(-c3cc(O)cc(F)c3)c3c(N)ncnc32)cc2ccccc2c1=O [Compound 33] and Cc1ccccc1-n1c(Cn2nc(-c3ccc(F)c(O)c3)c3c(N)ncnc32)cc2ccccc2c1=O [Compound 54] cannot be ordered by EC50: < 100 nM for the first, < 100 nM for the second.

Cc1cccc2cc(Cn3nc(Cl)c4c(N)ncnc43)n(-c3ccccc3F)c(=O)c12 [Compound 34] and Cc1cccc2cc(Cn3nc(I)c4c(N)ncnc43)n(-c3ccccc3Cl)c(=O)c12 [Compound 76] cannot be ordered by EC50: < 1000 nM for the first, < 1000 nM for the second.

Cc1ccccc1-n1c(Cn2nc(C#C[C@@H](C)O)c3c(N)ncnc32)cc2cccc(C)c2c1=O [Compound 37] and COc1ccccc1-n1c(Cn2nc(C#C[C@@H](C)O)c3c(N)ncnc32)cc2cccc(C)c2c1=O [Compound 80] cannot be ordered by EC50: < 100 nM for the first, < 1000 nM for the second.

Compared with Cc1cccc2cc(Cn3nc(-c4cccc(Cl)c4)c4c(N)ncnc43)n(-c3ccccc3F)c(=O)c12 [Compound 38], Cc1ccccc1-n1c(Cn2nc(-c3cccc(Cl)c3)c3c(N)ncnc32)cc2cccc(C)c2c1=O [Compound 39] is lower in EC50: > 10000 nM for the first, < 10000 nM for the second. The second is the more potent here.

Cc1cccc2cc(Cn3nc(-c4cccc(F)c4)c4c(N)ncnc43)n(-c3ccccc3F)c(=O)c12 [Compound 40] and Cc1ccccc1-n1c(Cn2nc(-c3cccc(F)c3)c3c(N)ncnc32)cc2cccc(C)c2c1=O [Compound 41] cannot be ordered by EC50: < 10000 nM for the first, < 1000 nM for the second.

COc1ccc(-c2nn(Cc3cc4cccc(C)c4c(=O)n3-c3ccccc3C)c3ncnc(N)c23)cc1OC [Compound 44] and COc1ccc(-c2nn(Cc3cc4cccc(C)c4c(=O)n3-c3ccccc3F)c3ncnc(N)c23)cc1OC [Compound 47] cannot be ordered by EC50: < 100 nM for the first, < 1000 nM for the second.

COc1ccc(-c2nn(Cc3cc4cccc(C)c4c(=O)n3-c3ccccc3C)c3ncnc(N)c23)cc1 [Compound 45] and Cc1ccccc1-n1c(Cn2nc(-c3ccc(Cl)cc3)c3c(N)ncnc32)cc2cccc(C)c2c1=O [Compound 49] cannot be ordered by EC50: < 1000 nM for the first, < 10000 nM for the second.

Cc1cccc2cc(Cn3nc(-c4ccc(O)cc4)c4c(N)ncnc43)n(-c3ccccc3F)c(=O)c12 [Compound 46] and Cc1cccc2cc(Cn3nc(-c4cccc(O)c4)c4c(N)ncnc43)n(-c3ccccc3O)c(=O)c12 [Compound 81] cannot be ordered by EC50: < 1000 nM for the first, < 100 nM for the second.

Cc1ccccc1-n1c(Cn2nc(-c3cnc4[nH]ccc4c3)c3c(N)ncnc32)cc2cccc(C)c2c1=O [Compound 48] and Cc1ccccc1-n1c(Cn2nc(-c3ccc4cc[nH]c4c3)c3c(N)ncnc32)cc2cccc(C)c2c1=O [Compound 50] cannot be ordered by EC50: < 100 nM for the first, < 1000 nM for the second.

Cc1ccccc1-n1c(Cn2nc(-c3cccc(O)c3)c3c(N)ncnc32)cc2ccccc2c1=O [Compound 51] and COc1ccccc1-n1c(Cn2nc(-c3cccc(O)c3)c3c(N)ncnc32)cc2cccc(C)c2c1=O [Compound 74] cannot be ordered by EC50: < 1000 nM for the first, < 100 nM for the second.

CC(=O)Nc1nc2ccc(-c3nn(Cc4cc5cccc(C)c5c(=O)n4-c4ccccc4C)c4ncnc(N)c34)cc2s1 [Compound 53] and Cc1cccc2cc(Cn3nc(-c4cccc(O)c4)c4c(N)ncnc43)n(-c3ccccc3C(C)C)c(=O)c12 [Compound 82] cannot be ordered by EC50: < 100 nM for the first, < 100 nM for the second.

Cc1cccc2cc(Cn3nc(I)c4c(N)ncnc43)n(C3CCCC3)c(=O)c12 [Compound 57] and Cc1cccc2cc(Cn3nc(-c4cc(O)cc(F)c4)c4c(N)ncnc43)n(C3CCCC3)c(=O)c12 [Compound 63] cannot be ordered by EC50: < 10000 nM for the first, < 100 nM for the second.

Cc1cccc2cc(Cn3nc(C#C[C@@H](C)O)c4c(N)ncnc43)n(C(C)C)c(=O)c12 [Compound 61] and Cc1cccc2cc(Cn3nc(C#C[C@@H](C)O)c4c(N)ncnc43)n(-c3ccccc3C(C)C)c(=O)c12 [Compound 83] cannot be ordered by EC50: < 1000 nM for the first, < 100 nM for the second.

Cc1cccc2cc(Cn3nc(-c4cccc(O)c4)c4c(N)ncnc43)n(C(C)C)c(=O)c12 [Compound 62] and Cc1cccc2cc(Cn3nc(-c4ccc(F)c(O)c4)c4c(N)ncnc43)n(C(C)C)c(=O)c12 [Compound 67] cannot be ordered by EC50: < 100 nM for the first, < 100 nM for the second.

Cc1cccc2cc(Cn3nc(-c4cc(O)cc(F)c4)c4c(N)ncnc43)n(C(C)C)c(=O)c12 [Compound 66] and COc1ccccc1-n1c(Cn2nc(-c3cc(O)cc(F)c3)c3c(N)ncnc32)cc2cccc(C)c2c1=O [Compound 84] cannot be ordered by EC50: < 100 nM for the first, < 100 nM for the second.

Cc1cccnc1-n1c(Cn2nc(C#C[C@@H](C)O)c3c(N)ncnc32)cc2cccc(C)c2c1=O [Compound 69] and Cc1cccnc1-n1c(Cn2nc(-c3cccc(O)c3)c3c(N)ncnc32)cc2cccc(C)c2c1=O [Compound 73] cannot be ordered by EC50: < 1000 nM for the first, < 100 nM for the second.

COc1ccccc1-n1c(Cn2nc(I)c3c(N)ncnc32)cc2cccc(C)c2c1=O [Compound 70] and Cc1cccc2cc(Cn3nc(I)c4c(N)ncnc43)n(-c3ccccc3O)c(=O)c12 [Compound 79] cannot be ordered by EC50: < 1000 nM for the first, < 1000 nM for the second.

Cc1cccc2cc(Cn3nc(-c4ccc(Cl)c(O)c4)c4c(N)ncnc43)n(C3CCCC3)c(=O)c12 [Compound 71] and Cc1cccnc1-n1c(Cn2nc(-c3ccc(Cl)c(O)c3)c3c(N)ncnc32)cc2cccc(C)c2c1=O [Compound 72] cannot be ordered by EC50: < 10000 nM for the first, < 100 nM for the second.

Cc1cccc2cc(Cn3nc(I)c4c(N)ncnc43)n(-c3ccccc3C(C)C)c(=O)c12 [Compound 75] and CCc1ccccc1-n1c(Cn2nc(I)c3c(N)ncnc32)cc2cccc(C)c2c1=O [Compound 77] cannot be ordered by EC50: < 100 nM for the first, < 1000 nM for the second.

With Cc1ccncc1-n1c(Cn2nc(I)c3c(N)ncnc32)cc2cccc(C)c2c1=O [Compound 78] the EC50 was < 1000 nM.
